Relative viability data for seven cell lines are collected here from the supplement of paper PMC10307832.

Common to all, as to test: relative viability (nuclei count vs DMSO), 5 days (fraction); higher = more cells survive
Compound in the assay “Kobe2602 + Palbociclib”: C1=CC(=CC=C1NC(=S)NNC2=C(C=C(C=C2[N+](=O)[O-])C(F)(F)F)[N+](=O)[O-])F [Kobe2602] + CC(=O)c1c(C)c2cnc(Nc3ccc(N4CCNCC4)cn3)nc2n(C2CCCC2)c1=O [Palbociclib] (partner 0.5 µM)
The method, boiled down:
(§1)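 Lung cancer cell lines were pin-tool dosed in 1536-well plates on the day after seeding, with either a lone drug or a fixed anchor-drug dose plus five library-drug doses (not always all listed) in √10 steps. Nuclei were counted on 4× images after 5 days. Relative viability is the ratio of treated-well to vehicle-well nuclei counts, with each value a median of duplicate plates.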

Compound in assay [1]: COc1cc2nccc(Oc3ccc(NC(=O)C4(C(=O)Nc5ccc(F)cc5)CC4)cc3)c2cc1OC [Cabozantinib] + CC(C)C[C@H](NC(=O)[C@H](Cc1ccccc1)NC(=O)c1cnccn1)B(O)O [Bortezomib] (partner 0.002 µM)
The method, boiled down: as §1

Compound in the assay “Cabozantinib + Foretinib”: COc1cc2nccc(Oc3ccc(NC(=O)C4(C(=O)Nc5ccc(F)cc5)CC4)cc3)c2cc1OC [Cabozantinib] + COc1cc2c(Oc3ccc(NC(=O)C4(C(=O)Nc5ccc(F)cc5)CC4)cc3F)ccnc2cc1OCCCN1CCOCC1 [Foretinib] (partner 0.25 µM)
The gist of the method:
as §1

Compound in the assay “Cabozantinib + Lapatinib”: COc1cc2nccc(Oc3ccc(NC(=O)C4(C(=O)Nc5ccc(F)cc5)CC4)cc3)c2cc1OC [Cabozantinib] + CS(=O)(=O)CCNCc1ccc(-c2ccc3ncnc(Nc4ccc(OCc5cccc(F)c5)c(Cl)c4)c3c2)o1 [Lapatinib] (partner 2 µM)
The method, boiled down: as §1

For NCI-H2405, the relative viability with Kobe2602 + Palbociclib (first compound 0.2 µM) turned out to be 0.52; with Kobe2602 + Palbociclib (first compound 0.6325 µM), 0.572; with Kobe2602 + Palbociclib (first compound 2 µM), 0.537; with Kobe2602 + Palbociclib (first compound 6.325 µM), 0.553; in the assay with Kobe2602 + Palbociclib (first compound 20 µM), 0.528; in assay [1] (first compound 0.02 µM) it was 0.947. For the same cell line, the relative viability in assay [1] (first compound 0.06325 µM) amounted to 1.06; in assay [1] (first compound 0.2 µM), 0.989; in assay [1] (first compound 0.6325 µM), 0.871; in assay [1] (first compound 2 µM), 1.04; with Cabozantinib + Foretinib (first compound 0.02 µM), 1.01; in the assay with Cabozantinib + Foretinib (first compound 0.06325 µM) it was 1.04. The relative viability was found to be 1.05 with Cabozantinib + Foretinib (first compound 0.2 µM); 1.05 in the assay with Cabozantinib + Foretinib (first compound 0.6325 µM); 1.01 with Cabozantinib + Foretinib (first compound 2 µM); 1.16 with Cabozantinib + Lapatinib (first compound 0.06325 µM); 1.2 in the assay with Cabozantinib + Lapatinib (first compound 0.2 µM); 1.1 with Cabozantinib + Lapatinib (first compound 0.6325 µM). In the assay with Cabozantinib + Lapatinib (first compound 2 µM), the relative viability turned out to be 1.02.
Regarding NCI-H3122, the relative viability with Kobe2602 + Palbociclib (first compound 0.2 µM) stood at 0.184; with Kobe2602 + Palbociclib (first compound 0.6325 µM), 0.169; with Kobe2602 + Palbociclib (first compound 2 µM) it was 0.194; with Kobe2602 + Palbociclib (first compound 6.325 µM), 0.201; with Kobe2602 + Palbociclib (first compound 20 µM), 0.212; in assay [1] (first compound 0.02 µM), 1. For the same cell line, the relative viability worked out at 1.01 in assay [1] (first compound 0.06325 µM); 0.978 in assay [1] (first compound 0.2 µM); 0.924 in assay [1] (first compound 0.6325 µM); 0.964 in assay [1] (first compound 2 µM); 0.947 with Cabozantinib + Foretinib (first compound 0.02 µM); 0.973 in the assay with Cabozantinib + Foretinib (first compound 0.06325 µM). Besides, the relative viability was determined as 0.949 with Cabozantinib + Foretinib (first compound 0.2 µM); 0.892 in the assay with Cabozantinib + Foretinib (first compound 0.6325 µM); 0.946 with Cabozantinib + Foretinib (first compound 2 µM); 1.01 with Cabozantinib + Lapatinib (first compound 0.02 µM); 1.01 with Cabozantinib + Lapatinib (first compound 0.06325 µM); 1.02 with Cabozantinib + Lapatinib (first compound 0.2 µM). Besides, the relative viability amounted to 1.03 in the assay with Cabozantinib + Lapatinib (first compound 0.6325 µM) and 0.954 in the assay with Cabozantinib + Lapatinib (first compound 2 µM).
Take PC-3 [JPC-3]: the relative viability with Kobe2602 + Palbociclib (first compound 0.2 µM) was 0.587; in the assay with Kobe2602 + Palbociclib (first compound 0.6325 µM), 0.524; with Kobe2602 + Palbociclib (first compound 2 µM), 0.561; in the assay with Kobe2602 + Palbociclib (first compound 6.325 µM), 0.482; in the assay with Kobe2602 + Palbociclib (first compound 20 µM), 0.501; in assay [1] (first compound 0.02 µM), 0.802. The relative viability in assay [1] (first compound 0.06325 µM) worked out at 0.992; in assay [1] (first compound 0.6325 µM) it was 0.863; in assay [1] (first compound 2 µM), 0.867; in the assay with Cabozantinib + Foretinib (first compound 0.02 µM) it was 1.19; in the assay with Cabozantinib + Foretinib (first compound 0.06325 µM), 1.2; with Cabozantinib + Foretinib (first compound 0.6325 µM), 1.09. The relative viability in the assay with Cabozantinib + Foretinib (first compound 2 µM) is 1.04; with Cabozantinib + Lapatinib (first compound 0.02 µM), 0.398; with Cabozantinib + Lapatinib (first compound 0.06325 µM), 0.473; in the assay with Cabozantinib + Lapatinib (first compound 0.6325 µM), 0.407; in the assay with Cabozantinib + Lapatinib (first compound 2 µM) it was 0.391.
Take PC-14: the relative viability worked out at 0.502 with Kobe2602 + Palbociclib (first compound 0.2 µM); 0.51 with Kobe2602 + Palbociclib (first compound 0.6325 µM); 0.539 with Kobe2602 + Palbociclib (first compound 2 µM); 0.455 with Kobe2602 + Palbociclib (first compound 6.325 µM); 0.32 with Kobe2602 + Palbociclib (first compound 20 µM); 0.952 in assay [1] (first compound 0.02 µM). The relative viability worked out at 0.89 in assay [1] (first compound 0.06325 µM); 0.829 in assay [1] (first compound 0.6325 µM); 0.8 in assay [1] (first compound 2 µM); 0.99 in the assay with Cabozantinib + Foretinib (first compound 0.02 µM); 1 with Cabozantinib + Foretinib (first compound 0.06325 µM); 1.05 with Cabozantinib + Foretinib (first compound 0.6325 µM). Moreover, the relative viability with Cabozantinib + Foretinib (first compound 2 µM) was determined as 0.976; with Cabozantinib + Lapatinib (first compound 0.02 µM) it was 0.27; with Cabozantinib + Lapatinib (first compound 0.06325 µM), 0.3; with Cabozantinib + Lapatinib (first compound 0.6325 µM), 0.273; in the assay with Cabozantinib + Lapatinib (first compound 2 µM), 0.27.
Take RERF-LC-KJ: the relative viability with Kobe2602 + Palbociclib (first compound 0.2 µM) is 0.994; with Kobe2602 + Palbociclib (first compound 0.6325 µM), 1.02; with Kobe2602 + Palbociclib (first compound 2 µM) it was 0.992; with Kobe2602 + Palbociclib (first compound 6.325 µM) it was 0.939; with Kobe2602 + Palbociclib (first compound 20 µM) it was 0.728; in assay [1] (first compound 0.02 µM), 1.11. Further, the relative viability is 1.04 in assay [1] (first compound 0.06325 µM); 1.26 in assay [1] (first compound 0.2 µM); 1.05 in assay [1] (first compound 0.6325 µM); 1.06 in assay [1] (first compound 2 µM); 0.921 with Cabozantinib + Foretinib (first compound 0.02 µM); 0.852 with Cabozantinib + Foretinib (first compound 0.06325 µM). The relative viability was found to be 0.863 with Cabozantinib + Foretinib (first compound 0.2 µM); 0.899 in the assay with Cabozantinib + Foretinib (first compound 0.6325 µM); 0.943 in the assay with Cabozantinib + Foretinib (first compound 2 µM); 0.904 in the assay with Cabozantinib + Lapatinib (first compound 0.02 µM); 0.894 with Cabozantinib + Lapatinib (first compound 0.06325 µM); 0.784 with Cabozantinib + Lapatinib (first compound 0.2 µM). Also, the values for the relative viability with Cabozantinib + Lapatinib (first compound 0.6325 µM) and with Cabozantinib + Lapatinib (first compound 2 µM) were 0.776 and 0.815, respectively.
In the case of SK-LU-1, the relative viability was 0.396 in the assay with Kobe2602 + Palbociclib (first compound 0.2 µM); 0.402 with Kobe2602 + Palbociclib (first compound 0.6325 µM); 0.338 with Kobe2602 + Palbociclib (first compound 2 µM); 0.428 with Kobe2602 + Palbociclib (first compound 6.325 µM); 0.459 with Kobe2602 + Palbociclib (first compound 20 µM); 1.06 in assay [1] (first compound 0.02 µM). The relative viability in assay [1] (first compound 0.06325 µM) is 1.78; in assay [1] (first compound 0.2 µM) it was 1.39; in assay [1] (first compound 0.6325 µM), 0.905; in assay [1] (first compound 2 µM) it was 1.1; in the assay with Cabozantinib + Foretinib (first compound 0.02 µM), 0.868; in the assay with Cabozantinib + Foretinib (first compound 0.06325 µM), 1.01. The relative viability with Cabozantinib + Foretinib (first compound 0.2 µM) was found to be 0.904; with Cabozantinib + Foretinib (first compound 0.6325 µM), 0.845; in the assay with Cabozantinib + Foretinib (first compound 2 µM), 0.699; with Cabozantinib + Lapatinib (first compound 0.06325 µM), 0.539; with Cabozantinib + Lapatinib (first compound 0.2 µM), 0.929; in the assay with Cabozantinib + Lapatinib (first compound 0.6325 µM), 0.774. Further, the relative viability with Cabozantinib + Lapatinib (first compound 2 µM) came to 0.634.
Take SW 1573: the relative viability with Kobe2602 + Palbociclib (first compound 0.2 µM) was found to be 0.405; in the assay with Kobe2602 + Palbociclib (first compound 0.6325 µM), 0.477; in the assay with Kobe2602 + Palbociclib (first compound 2 µM), 0.375; with Kobe2602 + Palbociclib (first compound 6.325 µM), 0.358; with Kobe2602 + Palbociclib (first compound 20 µM) it was 0.281; in assay [1] (first compound 0.02 µM), 1.23. For the same cell line, the relative viability in assay [1] (first compound 0.06325 µM) turned out to be 1.05; in assay [1] (first compound 0.2 µM), 1.09; in assay [1] (first compound 0.6325 µM) it was 0.951; in assay [1] (first compound 2 µM), 0.875; with Cabozantinib + Foretinib (first compound 0.02 µM) it was 0.966; with Cabozantinib + Foretinib (first compound 0.06325 µM) it was 0.828. Besides, the relative viability with Cabozantinib + Foretinib (first compound 0.2 µM) was 0.984; with Cabozantinib + Foretinib (first compound 0.6325 µM) it was 1.09; in the assay with Cabozantinib + Foretinib (first compound 2 µM), 0.964; with Cabozantinib + Lapatinib (first compound 0.02 µM), 1.06; with Cabozantinib + Lapatinib (first compound 0.06325 µM), 1.03; with Cabozantinib + Lapatinib (first compound 0.2 µM), 1.23. Further, the relative viability in the assay with Cabozantinib + Lapatinib (first compound 0.6325 µM) is 1.23; in the assay with Cabozantinib + Lapatinib (first compound 2 µM), 1.04.
